The record followed here is publication PMC6267282, “Targeting the DNA Repair Endonuclease ERCC1-XPF with Green Tea Polyphenol Epigallocatechin-3-Gallate (EGCG) and Its Prodrug to Enhance Cisplatin Efficacy in Human Cancer Cells” (Nutrients, 2018).

This test has as its target T1, ERCC1/XPF (XPF endonuclease) (Homo sapiens, UniProt Q92889).
T1 construct: gene ERCC4; with ERCC1
Nature of the test: fluorescence-based DNA incision assay with purified ERCC1/XPF. Format: biochemical.

T1 sequence (Q92889 whole entry): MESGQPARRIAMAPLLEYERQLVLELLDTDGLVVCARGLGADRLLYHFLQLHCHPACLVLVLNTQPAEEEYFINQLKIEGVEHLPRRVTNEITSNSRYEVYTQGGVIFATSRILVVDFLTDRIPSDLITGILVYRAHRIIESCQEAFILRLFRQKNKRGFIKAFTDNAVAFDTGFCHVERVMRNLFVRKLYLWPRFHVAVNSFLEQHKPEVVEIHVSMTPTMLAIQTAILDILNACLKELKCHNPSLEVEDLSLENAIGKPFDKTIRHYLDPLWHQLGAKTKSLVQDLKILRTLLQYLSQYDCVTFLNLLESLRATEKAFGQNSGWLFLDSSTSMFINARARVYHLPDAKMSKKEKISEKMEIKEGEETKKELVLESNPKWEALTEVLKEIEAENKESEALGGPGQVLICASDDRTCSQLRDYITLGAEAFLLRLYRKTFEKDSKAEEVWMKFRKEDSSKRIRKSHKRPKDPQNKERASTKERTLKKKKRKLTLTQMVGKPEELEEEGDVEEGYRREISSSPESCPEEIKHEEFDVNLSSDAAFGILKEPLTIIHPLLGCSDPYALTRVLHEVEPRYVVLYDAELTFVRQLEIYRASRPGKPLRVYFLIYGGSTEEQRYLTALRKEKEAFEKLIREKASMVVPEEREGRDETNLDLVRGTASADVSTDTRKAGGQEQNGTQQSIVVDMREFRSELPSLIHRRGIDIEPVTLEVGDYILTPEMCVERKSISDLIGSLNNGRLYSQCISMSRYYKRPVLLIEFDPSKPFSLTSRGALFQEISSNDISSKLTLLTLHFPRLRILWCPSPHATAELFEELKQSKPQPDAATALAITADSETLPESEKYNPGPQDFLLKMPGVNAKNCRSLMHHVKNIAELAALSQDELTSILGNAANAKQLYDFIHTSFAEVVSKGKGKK
T1 sequence (P07992 whole entry, further chain): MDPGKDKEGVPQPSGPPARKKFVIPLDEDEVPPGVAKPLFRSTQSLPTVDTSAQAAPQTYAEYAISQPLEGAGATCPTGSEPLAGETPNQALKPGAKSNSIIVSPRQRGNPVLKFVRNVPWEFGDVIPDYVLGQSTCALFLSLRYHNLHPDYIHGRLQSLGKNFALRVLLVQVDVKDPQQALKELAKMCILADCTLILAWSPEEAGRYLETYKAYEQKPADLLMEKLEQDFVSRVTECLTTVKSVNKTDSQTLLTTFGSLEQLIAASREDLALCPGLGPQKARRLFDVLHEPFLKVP

Regarding `O=c1c(O)c(-c2cc(O)c(O)c(O)c2)oc2cc(O)cc(O)c12` [Myricetin], the IC50 is approximately 150 nM.
